The test system of the experiment is Plasmodium berghei. The experiment in a line: Luciferase/luciferin-expressing antifolate-resistant parasites were used to infect a culture of HepG2 cells that were pre-incubated with compounds. Infected hepatocytes emit light due to the luciferase reaction. Assay results are presented as the percent inhibition of light emission compared to control. […]. The class given is functional. The conditions noted are these: sporozoite; for IC90: read-out: LUCIFERASE INFECTION ASSAY - IC90.

The mark [1] stands for this setting: read-out: LUCIFERASE INFECTION ASSAY - IC50.

Experimental findings from ChEMBL document CHEMBL4483862, “Open-source discovery of chemical leads for next-generation chemoprotective antimalarials” (2018) are described below.

What is called IC50 is the concentration that inhibits the measured activity by half. In general, IC90 refers to the concentration needed for an effect of 90%.

A value given as a limit tells only on which side of the number the result lay.

In the case of `CCOc1cc(/C=C/C(=O)c2cccs2)cc(Br)c1OC`, the IC90 is over 10 µM. Moreover, the IC50 (HEPG2TOX_HILL_SLOPE 0.301, HEPG2TOX_R_SQUARED 0.1, PBLUC_HILL_SLOPE 0.921, PBLUC_R_SQUARED 0.199, read-out: LUCIFERASE INFECTION ASSAY - IC50) is over 10 µM.
`Cc1nc2ccccc2nc1SCC(=O)NC1CCCC(C)C1C` (configuration not stated): the IC90 worked out at 8.45 µM. Also, under “HEPG2TOX_HILL_SLOPE 2.05, HEPG2TOX_R_SQUARED 0.851, PBLUC_HILL_SLOPE 3.81, PBLUC_R_SQUARED 0.351, read-out: LUCIFERASE INFECTION ASSAY - IC50”, the IC50 was 4.75 µM.
As to `CC(C)(C)c1cc(NC(=O)COc2ccc3[nH]c4ccccc4c(=O)c3c2)n(-c2ccccc2)n1`, the 90% effect concentration (IC90) is 0.752 µM. Also, the concentration for half-maximal inhibition (IC50) (FFLUC_HILL_SLOPE 14.6, FFLUC_R_SQUARED 0.0178, PBLUC_HILL_SLOPE 1.61, PBLUC_R_SQUARED 0.936, read-out: LUCIFERASE INFECTION ASSAY - IC50) was 0.192 µM.
Consider `CS(=O)(=O)c1ncc(Cl)c(C(=O)Nc2nc(-c3cc(F)ccc3F)cs2)n1`, for which the IC90 was 6.15 µM. Under “HEPG2TOX_HILL_SLOPE 13.3, HEPG2TOX_R_SQUARED 0.702, PBLUC_HILL_SLOPE 67.7, PBLUC_R_SQUARED 0.588, read-out: LUCIFERASE INFECTION ASSAY - IC50”, the IC50 was 5.95 µM.
On to `Cc1ccc(C)c(Sc2ccc(NC(=O)CN3C(=O)NC(Cc4ccccc4)C3=O)cc2)c1` (configuration not stated), for which the IC90 was over 10 µM. In addition, the IC50 (PBLUC_HILL_SLOPE 1.97, PBLUC_R_SQUARED 0.872, read-out: LUCIFERASE INFECTION ASSAY - IC50) was determined as 5.94 µM.
Consider `O=C(Cc1cccs1)Nc1nc2ccccc2nc1N1CCCC1`, for which the IC90 was over 10 µM. Besides, the IC50 (HEPG2TOX_HILL_SLOPE 4.38, HEPG2TOX_R_SQUARED 0.169, read-out: LUCIFERASE INFECTION ASSAY - IC50) was over 10 µM.
In the case of `O=C(NNC(=O)c1ccccc1Nc1ccccc1)c1ccccc1O`, the IC90 came to 9.6 µM. In addition, the IC50 under setting [1] was 8.81 µM.
Regarding `CCOC(=O)c1cc(-c2ccccc2)sc1NC(=O)CSc1nnc(-c2cccnc2)n1-c1ccccc1C`, the IC90 was over 10 µM. In addition, for the setting “PBLUC_HILL_SLOPE 3.21, PBLUC_R_SQUARED 0.715, read-out: LUCIFERASE INFECTION ASSAY - IC50”, the IC50 was determined as 6.74 µM.
As for `Cc1cccc(N/N=C2\C=NN=C2c2ccc(Br)cc2)c1`, the IC90 is over 9.67 µM. Further, the IC50 (FFLUC_HILL_SLOPE 12.3, FFLUC_R_SQUARED 0.435, HEPG2TOX_HILL_SLOPE 0.345, HEPG2TOX_R_SQUARED 0.819, PBLUC_HILL_SLOPE 10.9, PBLUC_R_SQUARED 0.46, read-out: LUCIFERASE INFECTION ASSAY - IC50) was determined as 9.21 µM.
Regarding `Cc1cc2ccccn2c1C(=O)c1ccccc1Br`, the IC90 is over 10 µM. In addition, the IC50 (HEPG2TOX_HILL_SLOPE 6.22, HEPG2TOX_R_SQUARED 0.365, PBLUC_HILL_SLOPE 4.01, PBLUC_R_SQUARED 0.105, read-out: LUCIFERASE INFECTION ASSAY - IC50) came to 9.81 µM.
As to `Cc1ccc(-c2cnc3ccc(NC4CCOCC4)nn23)cc1C`, the IC90 was 4.53 µM. Further, the IC50 (HEPG2TOX_HILL_SLOPE 2.16, HEPG2TOX_R_SQUARED 0.752, PBLUC_HILL_SLOPE 1.94, PBLUC_R_SQUARED 0.563, read-out: LUCIFERASE INFECTION ASSAY - IC50) was 1.46 µM.
Turning to `CN(NS(=O)(=O)c1ccc(Cl)cc1)c1cnn(C)c(=O)c1Cl`, the IC90 was over 9.09 µM. Moreover, under setting [1], the IC50 was over 9.09 µM.
As for `CC(C)C(NC(=O)c1ccc(C(C)(C)C)cc1)C(=O)Nc1ncc(Cc2ccc(Cl)cc2)s1` (configuration not stated), the IC90 was over 10 µM. Moreover, the IC50 under setting [1] is over 10 µM.
On to `Cc1nnnn1/C(=C\c1ccccc1)C(=O)N1CCCC1c1nc2ccccc2s1` (configuration not stated), for which the IC90 is over 10 µM. Moreover, the IC50 (HEPG2TOX_HILL_SLOPE 10.1, HEPG2TOX_R_SQUARED 0.585, PBLUC_HILL_SLOPE 18.2, PBLUC_R_SQUARED 0.211, read-out: LUCIFERASE INFECTION ASSAY - IC50) was 9.46 µM.
As for `CC(C)(C)c1cc(N2Cc3ccccc3C2=N)cc(C(C)(C)C)c1`, the IC90 was over 10 µM. Moreover, the IC50 under setting [1] is over 10 µM.
For the molecule `Cc1ccc(C)c(-n2cc(-c3ccc(Cl)cc3)nc2SCC(=O)c2ccc(Cl)c(Cl)c2)c1`, the IC90 is over 10 µM. In addition, the 50% inhibitory concentration (IC50) (FFLUC_HILL_SLOPE 12.4, FFLUC_R_SQUARED 0.889, HEPG2TOX_HILL_SLOPE 8.6, HEPG2TOX_R_SQUARED 0.032, read-out: LUCIFERASE INFECTION ASSAY - IC50) is over 10 µM.
Turning to `CCOC(=O)c1[nH]c(C)c(C(=O)/C=C/c2c(C)nn3c(C(F)(F)F)ccnc23)c1C`, the IC90 was 0.365 µM. Moreover, the IC50 (HEPG2TOX_HILL_SLOPE 1.29, HEPG2TOX_R_SQUARED 0.824, PBLUC_HILL_SLOPE 0.936, PBLUC_R_SQUARED 0.825, read-out: LUCIFERASE INFECTION ASSAY - IC50) came out at 0.0349 µM.
For `CCc1ccc(OCC(O)Cn2c(=O)c3ccccc3n3nc(C)cc23)cc1` (configuration not stated), the IC90 was 9.43 µM. Moreover, the IC50 (HEPG2TOX_HILL_SLOPE 9.12, HEPG2TOX_R_SQUARED 0.677, PBLUC_HILL_SLOPE 3.87, PBLUC_R_SQUARED 0.197, read-out: LUCIFERASE INFECTION ASSAY - IC50) is 5.34 µM.
Take `Fc1ccccc1-c1cnn2c(NCc3cccs3)ccnc12`: the IC90 is over 10.2 µM. Also, the IC50 (FFLUC_HILL_SLOPE 1.17, FFLUC_R_SQUARED 0.682, PBLUC_HILL_SLOPE 0.51, PBLUC_R_SQUARED 0.639, read-out: LUCIFERASE INFECTION ASSAY - IC50) was determined as 0.238 µM.
Consider `CCN(C(=O)c1ccc(NC(=O)C2CC2)s1)c1ccccc1C`, for which the IC90 was over 10 µM. The IC50 (PBLUC_HILL_SLOPE 5.48, PBLUC_R_SQUARED 0.146, read-out: LUCIFERASE INFECTION ASSAY - IC50) is 9.18 µM.
Turning to `Clc1cccc(Cl)c1/C=C/c1cc[nH]n1`, the IC90 was over 13.8 µM. The IC50 (HEPG2TOX_HILL_SLOPE 3.46, HEPG2TOX_R_SQUARED 0.979, PBLUC_HILL_SLOPE 12.7, PBLUC_R_SQUARED 0.349, read-out: LUCIFERASE INFECTION ASSAY - IC50) worked out at 12 µM.
For the molecule `CCCCCNS(=O)(=O)c1cccc2c(N)cccc12`, the IC90 is over 11.3 µM. The IC50 under setting [1] was determined as 3.76 µM.
`CSc1sc(C(=O)NN=C(C)C)c2c1C(O)CCC2` (configuration not stated): the IC90 is over 11.1 µM. Further, the IC50 (HEPG2TOX_HILL_SLOPE 6.67, HEPG2TOX_R_SQUARED 0.767, PBLUC_HILL_SLOPE 1.8, PBLUC_R_SQUARED 0.584, read-out: LUCIFERASE INFECTION ASSAY - IC50) was determined as 10.2 µM.
As for `CCOC(=O)c1c(C)nc(-c2ccco2)nc1SCc1ncc(-c2ccc(F)cc2)o1`, the concentration for an effect of 90% (IC90) amounted to 3.58 µM. Besides, the IC50 (PBLUC_HILL_SLOPE 11.1, PBLUC_R_SQUARED 0.631, read-out: LUCIFERASE INFECTION ASSAY - IC50) was determined as 2.94 µM.
On to `CN(C)S(=O)(=O)c1cccc(NC(=O)c2nc(Cl)c(Cl)c(Cl)c2Cl)c1`, for which the IC90 is over 10 µM. Moreover, under “HEPG2TOX_HILL_SLOPE 12.2, HEPG2TOX_R_SQUARED 0.865, PBLUC_HILL_SLOPE 2.73, PBLUC_R_SQUARED 0.48, read-out: LUCIFERASE INFECTION ASSAY - IC50”, the half-maximal inhibitory concentration (IC50) was over 10 µM.
As to `Cn1c(SCC(=O)c2ccc(Cl)cc2)nnc1-c1ccc(C(C)(C)C)cc1`, the IC90 was over 8.25 µM. Besides, under “PBLUC_HILL_SLOPE 11.7, PBLUC_R_SQUARED 0.0355, read-out: LUCIFERASE INFECTION ASSAY - IC50”, the IC50 is over 8.25 µM.
In the case of `S=C(NCCc1ccc(Cl)cc1Cl)NC1CC2CCC1C2` (configuration not stated), the IC90 was over 10 µM. Also, under setting [1], the IC50 was over 10 µM.
As to `COC(=O)c1cc(NC(=O)Nc2cc(Cl)cc(Cl)c2)ccc1N1CCOCC1`, the IC90 came to 4.16 µM. The half-maximal inhibitory concentration (IC50) (PBLUC_HILL_SLOPE 7.3, PBLUC_R_SQUARED 0.704, read-out: LUCIFERASE INFECTION ASSAY - IC50) worked out at 3.08 µM.
Turning to `CCn1c(NC(=O)c2oc3ccccc3c2COC)nc2ccccc21`, the concentration for an effect of 90% (IC90) amounted to 4.5 µM. Moreover, the 50% inhibitory concentration (IC50) (PBLUC_HILL_SLOPE 11.7, PBLUC_R_SQUARED 0.368, read-out: LUCIFERASE INFECTION ASSAY - IC50) was determined as 3.72 µM.
Take `O=c1c(NS(=O)(=O)c2ccc(Cl)cc2)cccn1Cc1ccc(Cl)c(Cl)c1`: the IC90 is over 7.44 µM. Moreover, the IC50 under setting [1] was over 7.44 µM.
With `Cc1cc(C)nc(Nc2nc(C(N)Cc3ccc(C(F)(F)F)cc3)cs2)n1` (configuration not stated), the IC90 is over 8.39 µM. Under setting [1], the IC50 is over 8.39 µM.
For `C#CCOc1ccc(CNCCc2ccccc2)cc1OCC`, the 90% effect concentration (IC90) was over 9.54 µM. Where the note is “PBLUC_HILL_SLOPE 6.85, PBLUC_R_SQUARED 0.0184, read-out: LUCIFERASE INFECTION ASSAY - IC50”, the IC50 was over 9.54 µM.
Take `CCCCCc1ccc(C(=O)Nc2nc3ccccn3c2C(=O)NCCCN2CCOCC2)cc1`: the IC90 worked out at 3.5 µM. Further, where the note is “PBLUC_HILL_SLOPE 8.91, PBLUC_R_SQUARED 0.136, read-out: LUCIFERASE INFECTION ASSAY - IC50”, the IC50 was 2.74 µM.
On to `O=C1COc2ccc(-c3csc(Nc4ccccc4C(F)(F)F)n3)cc2N1`, for which the concentration for an effect of 90% (IC90) was over 10 µM. In addition, under setting [1], the half-maximal inhibitory concentration (IC50) came to 5.54 µM.
Turning to `COc1ccccc1-n1c(SCCn2c([N+](=O)[O-])cnc2C)nc2sc3c(c2c1=O)CCCC3`, the IC90 came to 4.01 µM. The IC50 (HEPG2TOX_HILL_SLOPE 0.275, HEPG2TOX_R_SQUARED 0.775, PBLUC_HILL_SLOPE 12.8, PBLUC_R_SQUARED 0.595, read-out: LUCIFERASE INFECTION ASSAY - IC50) was 3.38 µM.
In the case of `COc1ccc(-c2cc([N+](=O)[O-])ccc2OC(C)C(=O)N2CCC(C)CC2)cc1` (configuration not stated), the concentration for an effect of 90% (IC90) worked out at 4.24 µM. Further, the 50% inhibitory concentration (IC50) (PBLUC_HILL_SLOPE 7.12, PBLUC_R_SQUARED 0.553, read-out: LUCIFERASE INFECTION ASSAY - IC50) amounted to 3.11 µM.
